IC50 ratio and IC50 data for four compounds are collected here from ChEMBL document CHEMBL1132500, “Structure and antimalarial activity of adducts of 11-azaartemisinin with conjugated terminal acetylenes” (Bioorg Med Chem Lett, 1999).

In general, IC50 refers to the concentration at which inhibition is half-maximal. A lower IC50 goes with greater potency.

The structures appear in SMILES notation. ≈ marks a conversion by molar mass, not a printed value.

For assay [1], the system named is Plasmodium falciparum. In words: Antimalarial activity against Plasmodium falciparum D6 as IC50 relative to artemisinin. The class given is functional.
Assay [2] deals with Plasmodium falciparum. In words: Antimalarial activity against Plasmodium falciparum W2 clone as relative IC50 to artemisinin. The class given is functional.
The subject of assay [3] is Plasmodium falciparum. As to the kind of experiment: Inhibitory activity against Plasmodium falciparum D6. Type of assay: functional, organism-based.
Assay [4] concerns Plasmodium falciparum. As to the kind of experiment: Inhibitory activity against Plasmodium falciparum W2. Type of assay: functional, organism-based.

Regarding `C[C@@H]1CC[C@H]2[C@@H](C)C(=O)N(/C=C/C(=O)N(C)C)[C@@H]3O[C@]4(C)CC[C@@H]1[C@@]23OO4`, the IC50 ratio in the assay on Plasmodium falciparum [1] was determined as 0.39; with Plasmodium falciparum [2] it was 0.35.

As to `CC(=O)/C=C/N1C(=O)[C@H](C)[C@@H]2CC[C@@H](C)[C@@H]3CC[C@]4(C)OO[C@]32[C@H]1O4`, the values for the IC50 ratio in the assay with Plasmodium falciparum [1] and with Plasmodium falciparum [2] were 2.54 and 1.25, respectively.

As for `C[C@@H]1CC[C@H]2[C@@H](C)C(=O)O[C@@H]3O[C@@]4(C)CC[C@@H]1[C@]32OO4` [ARTEMISININ], the values for the IC50 with Plasmodium falciparum [3] and in the assay with Plasmodium falciparum [4] were 4.19 ng/mL (≈ 14.8 nM) and 1.15 ng/mL (≈ 4.07 nM), respectively.

As for `COC(=O)/C=C/N1C(=O)[C@H](C)[C@@H]2CC[C@@H](C)[C@@H]3CC[C@]4(C)OO[C@]32[C@H]1O4`, the IC50 ratio with Plasmodium falciparum [1] was found to be 2; in the assay on Plasmodium falciparum [2], 1.2.
